From patent US9914730B2, “Azaquinazoline inhibitors of Atypical protein Kinase C” (Ignyta, Inc., priority 2012, dated 2018) come the findings set out here.

The assay concerns the target T1, full-length human PKCι (Homo sapiens, UniProt P41743).
T1 construct: Recombinant, full-length human PKCι expressed in Sf21 insect cells is also commercially available; purchased; host or cells: Sf21 insect cells
T1 sequence (P41743 1-596): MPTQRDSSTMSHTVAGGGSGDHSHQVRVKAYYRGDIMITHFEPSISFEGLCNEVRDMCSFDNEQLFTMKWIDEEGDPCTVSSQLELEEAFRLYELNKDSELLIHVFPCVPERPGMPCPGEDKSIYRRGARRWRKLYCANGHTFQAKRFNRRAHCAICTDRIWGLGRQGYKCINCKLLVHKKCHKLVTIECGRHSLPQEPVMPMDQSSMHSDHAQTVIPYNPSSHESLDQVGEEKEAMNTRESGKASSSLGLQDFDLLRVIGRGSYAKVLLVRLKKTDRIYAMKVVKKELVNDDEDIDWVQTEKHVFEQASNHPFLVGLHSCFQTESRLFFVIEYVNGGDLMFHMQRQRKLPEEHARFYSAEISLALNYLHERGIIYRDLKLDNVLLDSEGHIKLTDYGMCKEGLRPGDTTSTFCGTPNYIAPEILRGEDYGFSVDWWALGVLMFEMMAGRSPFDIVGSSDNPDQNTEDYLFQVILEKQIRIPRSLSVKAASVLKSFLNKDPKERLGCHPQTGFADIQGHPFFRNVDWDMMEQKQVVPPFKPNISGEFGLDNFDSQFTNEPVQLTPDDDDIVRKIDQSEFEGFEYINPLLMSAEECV
Nature of the assay: PKCι IC50 IMAP assay, full-length PKCι at 150 μM ATP. Particulars: read-out: IC50 in IMAP assay against full length PKCi at 150 μM ATP. Format: biochemical. The method in brief:
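IMAP fluorescence polarisation (ex 485/em 530 nm) read-out; % inhibition set from no-compound (0%) and no-enzyme (100%) controls, IC50 from dose-response curve fit. Sf21-expressed full-length enzyme ~15 pM, 100 nM FAM peptide, ATP 150 μM (5× KM^APP), 60 min at RT.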
Regarding `Fc1cc(C2CC2)cc(F)c1Nc1cc(-c2nc(N3CCNCC3)c3c(C4CC4)cncc3n2)ccn1` [Example 603, (4-Cyclopropyl-2,6-difluoro-phenyl)-[4-(5-cyclopropyl-4-piperazin-1-yl-pyrido[3,4-d]pyrimidin-2-yl)-pyridin-2-yl]-amine], the IC50 was under 100 nM.

Take `Cc1cc(F)c(Nc2cc(-c3nc(N4CCNCC4)c4c(C5CC5)cncc4n3)ccn2)c(F)c1` [Example 604, [4-(5-Cyclopropyl-4-piperazin-1-yl-pyrido[3,4-d]pyrimidin-2-yl)-pyridin-2-yl]-(2,6-difluoro-4-methyl-phenyl)-amine]: the IC50 is under 100 nM.

As to `Cn1cnc(Nc2cc(-c3nc(N4CCNCC4)c4c(C5CC5)cncc4n3)ccn2)c1` [Example 605, [4-(5-Cyclopropyl-4-piperazin-1-yl-pyrido[3,4-d]pyrimidin-2-yl)-pyridin-2-yl]-(1-methyl-1H-imidazol-4-yl)-amine], the half-inhibitory concentration (IC50) was under 100 nM.

Turning to `OCCN1CCN(c2nc(-c3ccnc(Nc4ccccc4)c3)nc3cncc(C4CC4)c23)CC1` [Example 606, 2-{4-[5-Cyclopropyl-2-(2-phenylamino-pyridin-4-yl)-pyrido[3,4-d]pyrimidin-4-yl]-piperazin-1-yl}-ethanol], the IC50 was in the range of 100 to 1000 nM.

Take `OC[C@@H](O)CN1CCN(c2nc(-c3ccnc(Nc4ccccc4)c3)nc3cncc(C4CC4)c23)CC1` [Example 607, (S)-3-{4-[5-Cyclopropyl-2-(2-phenylamino-pyridin-4-yl)-pyrido[3,4-d]pyrimidin-4-yl]-piperazin-1-yl}-propane-1,2-diol]: the IC50 is 100 to 1000 nM.

With `OC[C@H](O)CN1CCN(c2nc(-c3ccnc(Nc4ccccc4)c3)nc3cncc(C4CC4)c23)CC1` [Example 608, (R)-3-{4-[5-Cyclopropyl-2-(2-phenylamino-pyridin-4-yl)-pyrido[3,4-d]pyrimidin-4-yl]-piperazin-1-yl}-propane-1,2-diol], the IC50 lay within 100 to 1000 nM.

Consider `COc1cc(Nc2cc(-c3nc(N4CCNCC4)c4c(C5CC5)cncc4n3)ccn2)ccc1C` [Example 609, [4-(5-Cyclopropyl-4-piperazin-1-yl-pyrido[3,4-d]pyrimidin-2-yl)-pyridin-2-yl]-(3-methoxy-4-methyl-phenyl)-amine], for which the IC50 is under 100 nM.

Take `COc1ccc(Nc2cc(-c3nc(N4CCNCC4)c4c(C5CC5)cncc4n3)ccn2)cc1OC` [Example 610, [4-(5-Cyclopropyl-4-piperazin-1-yl-pyrido[3,4-d]pyrimidin-2-yl)-pyridin-2-yl]-(3,4-dimethoxy-phenyl)-amine]: the IC50 was under 100 nM.

As for `COc1cc(Nc2cc(-c3nc(N4CCNCC4)c4c(C5CC5)cncc4n3)ccn2)cc(OC)c1OC` [Example 611, [4-(5-Cyclopropyl-4-piperazin-1-yl-pyrido[3,4-d]pyrimidin-2-yl)-pyridin-2-yl]-(3,4,5-trimethoxy-pheny)-amine], the IC50 was 100 to 1000 nM.

As for `O=C(Cc1ccccc1)Nc1cc(-c2nc(N3CCNCC3)c3c(C4CC4)cncc3n2)ccn1` [Example 612, N-[4-(5-Cyclopropyl-4-piperazin-1-yl-pyrido[3,4-d]pyrimidin-2-yl)-pyridin-2-yl]-2-phenyl-acetamide], the IC50 is under 100 nM.

For `O=C(CC(F)(F)F)Nc1cc(-c2nc(N3CCNCC3)c3c(C4CC4)cncc3n2)ccn1` [Example 613, N-[4-(5-Cyclopropyl-4-piperazin-1-yl-pyrido[3,4-d]pyrimidin-2-yl)-pyridin-2-yl]-3,3,3-trifluoro-propionamide], the IC50 is under 100 nM.

As to `CN1CCP(=O)(c2ccc(Nc3cc(-c4nc(N5CCNCC5)c5c(C6CC6)cncc5n4)ccn3)cc2)CC1` [Example 614, [4-(5-Cyclopropyl-4-piperazin-1-yl-pyrido[3,4-d]pyrimidin-2-yl)-pyridin-2-yl]-[4-(1-methyl-4-oxo-4λ^5-[1,4]azaphos-phinan-4-yl)-phenyl]-amine], the IC50 was under 100 nM.

As to `FC(F)(F)CC1CN(c2nc(-c3ccnc(Cl)c3)nc3cncc(C4CC4)c23)CCN1` (stereo not shown) [Example 615, 2-(2-Chloro-pyridin-4-yl)-5-cyclopropyl-4-[3-(2,2,2-trifluoro-ethyl)-piperazin-1-yl]-pyrido[3,4-d]pyrimidine], the IC50 lay within 100 to 1000 nM.

On to `Fc1cccc(Cl)c1Nc1cc(-c2nc(N3CCNCC3)c3c(C4CC4)cncc3n2)ccn1` [Example 616, (2-Chloro-6-fluoro-phenyl)-[4-(5-cyclopropyl-4-piperazin-1-yl-pyrido[3,4-d]pyrimidin-2-yl)-pyridin-2-yl]-amine], for which the IC50 was under 100 nM.

As to `Cc1ccc(Cl)c(Nc2cc(-c3nc(N4CCNCC4)c4c(C5CC5)cncc4n3)ccn2)c1F` [Example 617, (6-Chloro-2-fluoro-3-methyl-phenyl)-[4-(5-cyclopropyl-4-piperazin-1-yl-pyrido[3,4-d]pyrimidin-2-yl)-pyridin-2-yl]-amine], the IC50 was under 100 nM.

For the compound `Fc1ccc(Cl)c(F)c1Nc1cc(-c2nc(N3CCNCC3)c3c(C4CC4)cncc3n2)ccn1` [Example 618, (3-Chloro-2,6-difluoro-phenyl)-[4-(5-cyclopropyl-4-piperazin-1-yl-pyrido[3,4-d]pyrimidin-2-yl)-pyridin-2-yl]-amine], the IC50 was under 100 nM.

As for `c1ccc(Nc2cc(-c3nc(N4CCNCC4)c4c(C5CCC5)cncc4n3)ccn2)cc1` [Example 619, [4-(5-Cyclobutyl-4-piperazin-1-yl-pyrido[3,4-d]pyrimidin-2-yl)-pyridin-2-yl]-phenyl-amine], the IC50 is under 100 nM.

As for `Fc1cccc(F)c1Nc1cc(-c2nc(N3CCNCC3)c3c(C4CCC4)cncc3n2)ccn1` [Example 620, [4-(5-Cyclobutyl-4-piperazin-1-yl-pyrido[3,4-d]pyrimidin-2-yl)-pyridin-2-yl]-(2,6-difluoro-phenyl)-amine], the IC50 was under 100 nM.

Regarding `FC1(F)CCC(Nc2cc(-c3nc(N4CCNCC4)c4c(C5CC5)cncc4n3)ccn2)C1` (stereo not shown) [Example 621, [4-(5-Cyclopropyl-4-piperazin-1-yl-pyrido[3,4-d]pyrimidin-2-yl)-pyridin-2-yl]-(3,3-difluoro-cyclopentyl)-amine], the IC50 was under 100 nM.

As for `CC(C)c1cccc(Nc2cc(-c3nc(N4CCNCC4)c4c(C5CC5)cncc4n3)ccn2)c1` [Example 622, [4-(5-Cyclopropyl-4-piperazin-1-yl-pyrido[3,4-d]pyrimidin-2-yl)-pyridin-2-yl]-(3-isopropyl-phenyl)-amine], the IC50 was under 100 nM.

With `CCc1cccc(Nc2cc(-c3nc(N4CCNCC4)c4c(C5CC5)cncc4n3)ccn2)c1` [Example 623, [4-(5-Cyclopropyl-4-piperazin-1-yl-pyrido[3,4-d]pyrimidin-2-yl)-pyridin-2-yl]-(3-ethyl-phenyl)-amine], the IC50 was under 100 nM.

Consider `FC(F)(F)C1CN(c2nc(-c3ccnc(Cl)c3)nc3cncc(C4CC4)c23)CCN1` (stereo not shown) [Example 624, 2-(2-Chloro-pyridin-4-yl)-5-cyclopropyl-4-(3-trifluoromethyl-piperazin-1-yl)-pyrido[3,4-d]pyrimidine], for which the IC50 lay in the range of 100 to 1000 nM.

Turning to `CCN1CCP(=O)(c2ccc(Nc3cc(-c4nc(N5CCNCC5)c5c(C6CC6)cncc5n4)ccn3)c(OC)c2)CC1` [Example 625, [4-(5-Cyclopropyl-4-piperazin-1-yl-pyrido[3,4-d]pyrimidin-2-yl)-pyridin-2-yl]-[4-(1-ethyl-4-oxo-4λ^5-[1,4]azaphos-phinan-4-yl)-2-methoxy-phenyl]-amine], the IC50 lay in the range of 100 to 1000 nM.

On to `CC(=O)Nc1cc(-c2nc(N3CCNC(CC(F)(F)F)C3)c3c(C4CC4)cncc3n2)ccn1` (stereo not shown) [Example 626, N-(4-{5-Cyclopropyl-4-[3-(2,2,2-trifluoro-ethyl)-piperazin-1-yl]-pyrido[3,4-d]pyrimidin-2-yl}-pyridin-2-yl)-acetamide], for which the IC50 is under 100 nM.

For the compound `COc1cc(Nc2cc(-c3nc(N4CCNCC4)c4c(C5CC5)cncc4n3)ccn2)ccc1F` [Example 627, [4-(5-Cyclopropyl-4-piperazin-1-yl-pyrido[3,4-d]pyrimidin-2-yl)-pyridin-2-yl]-(4-fluoro-3-methoxy-phenyl)-amine], the IC50 was under 100 nM.

Take `COc1cc(Nc2cc(-c3nc(N4CCNCC4)c4c(C5CC5)cncc4n3)ccn2)c(F)cc1F` [Example 628, [4-(5-Cyclopropyl-4-piperazin-1-yl-pyrido[3,4-d]pyrimidin-2-yl)-pyridin-2-yl]-(2,4-difluoro-5-methoxy-phenyl)-amine]: the IC50 was under 100 nM.

For the compound `c1cc(-c2nc(N3CCNCC3)c3c(C4CC4)cncc3n2)cc(NCC2CC2)n1` [Example 629, Cyclopropyl-methyl-[4-(5-cyclopropyl - 4-piperazin-1-yl-pyrido[3,4-d]pyrimidin-2-yl)-pyridin-2-yl]-amine], the IC50 was under 100 nM.

On to `CNc1cc(-c2nc(N3CCNCC3)c3c(C4CC4)cncc3n2)ccn1` [Example 630, [4-(5-Cyclopropyl-4-piperazin-1-yl-pyrido[3,4-d]pyrimidin-2-yl)-pyridin-2-yl]-methyl-amine], for which the IC50 is under 100 nM.

As usually defined, the IC50 is the concentration at which inhibition is half-maximal.
